Target: T1, RHOGDI1 (Homo sapiens, UniProt P52565)
T1 construct: GST; made in house; host or cells: E. coli
Assay: Catch-and-release proteomics with lysine-reactive probe STPyne
Assay type: binding
Settings: 100 µM compound, 30 µM STPyne, HEK293T lysate
Method: Supplementary Table S11: Extracted list of STPyne PC cleaved RHOGDI peptides identified by catch-and-release proteomics. HEK293T lysate overexpressing RHOGDI-F was treated with 100 µM Rhonin or DMSO, followed by 30 µM STPyne. Asterisks indicate […]
(also on this page, place not known: S 11: catch -and-release RHOGDI -F DMS O, Modified lysine position Average ratio intensity STPyne-Rhonin-100 µM/DMSO SD ratio intensity STPyne-Rhonin-100 µM/DMSO 15) […]
(1 picture or pasted object on this page, not shown here)
Samples were acidified to a final concentration of 5% acetic acid, desalted over a self-packed C18 spin column, and dried. Peptides were resuspended in water with 0.1 % formic acid (FA) and analyzed using EASY-nLC 1200 nano-UHPLC coupled to Q Exactive HF-X Quadrupole-Orbitrap mass spectrometer (Thermo Scientific). The chromatography column consisted of a 45 cm long, 75 μm i.d. microcapillary capped by a 5 μm tip and packed with ReproSil -Pur 120 C18-AQ 2.4 μm beads (Dr. Maisch GmbH). LC solvents were 0.1 % FA in water (Buffer A) and 0.1 % FA in 90 % MeCN: 10 % water (Buffer B). […] The MS data was analyzed with MaxQuant[11] and searched against the human proteome (Uniprot), a common list of contaminants (included in MaxQuant) and the amino acid sequence of recombinant RHOGDI. […]

T1 sequence (P52565 whole entry): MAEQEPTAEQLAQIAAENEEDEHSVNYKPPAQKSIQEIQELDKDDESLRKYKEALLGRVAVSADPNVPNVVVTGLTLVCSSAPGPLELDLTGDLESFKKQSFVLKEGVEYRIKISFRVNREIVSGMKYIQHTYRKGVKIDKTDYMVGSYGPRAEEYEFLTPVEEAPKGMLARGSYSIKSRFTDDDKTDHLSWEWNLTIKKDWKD

SMILES: COC(=O)C1(C(CC(=O)c2cccnc2)c2ccccc2)N=C(c2ccc(Br)cc2)C2C(=O)N(C)C(=O)C21 (stereo not shown) [7l]
- STPyne labeling of RHOGDI1 lysines in presence of compound (in words): lysines 186 and 199 in RHOGDI1 were less efficiently labeled

From publication PMC9313812, “The Pseudo‐Natural Product Rhonin Targets RHOGDI” (Angewandte Chemie (International Ed. in English), 2022)
